Reference: ChEMBL document CHEMBL4385604, “Identification of Pyrrolo[2,3- d]pyrimidine-Based Derivatives as Potent and Orally Effective Fms-like Tyrosine Receptor Kinase 3 (FLT3) Inhibitors for Treating Acute Myelogenous Leukemia” (J Med Chem, 2019)

Assays:
[1] = Tmax in Sprague-Dawley rat at 5 mg/kg, po by LC-MS/MS analysis; type: ADME, organism-based; conditions: in vivo
[2] = biological target: T1, Receptor-type tyrosine-protein kinase FLT3 (Homo sapiens, UniProt P36888); test: Binding affinity to wild-type human partial length FLT3 (V592 to Y969 residues) expressed in Escherichia coli after 1 hr by qPCR analysis
T1 sequence (P36888 whole entry): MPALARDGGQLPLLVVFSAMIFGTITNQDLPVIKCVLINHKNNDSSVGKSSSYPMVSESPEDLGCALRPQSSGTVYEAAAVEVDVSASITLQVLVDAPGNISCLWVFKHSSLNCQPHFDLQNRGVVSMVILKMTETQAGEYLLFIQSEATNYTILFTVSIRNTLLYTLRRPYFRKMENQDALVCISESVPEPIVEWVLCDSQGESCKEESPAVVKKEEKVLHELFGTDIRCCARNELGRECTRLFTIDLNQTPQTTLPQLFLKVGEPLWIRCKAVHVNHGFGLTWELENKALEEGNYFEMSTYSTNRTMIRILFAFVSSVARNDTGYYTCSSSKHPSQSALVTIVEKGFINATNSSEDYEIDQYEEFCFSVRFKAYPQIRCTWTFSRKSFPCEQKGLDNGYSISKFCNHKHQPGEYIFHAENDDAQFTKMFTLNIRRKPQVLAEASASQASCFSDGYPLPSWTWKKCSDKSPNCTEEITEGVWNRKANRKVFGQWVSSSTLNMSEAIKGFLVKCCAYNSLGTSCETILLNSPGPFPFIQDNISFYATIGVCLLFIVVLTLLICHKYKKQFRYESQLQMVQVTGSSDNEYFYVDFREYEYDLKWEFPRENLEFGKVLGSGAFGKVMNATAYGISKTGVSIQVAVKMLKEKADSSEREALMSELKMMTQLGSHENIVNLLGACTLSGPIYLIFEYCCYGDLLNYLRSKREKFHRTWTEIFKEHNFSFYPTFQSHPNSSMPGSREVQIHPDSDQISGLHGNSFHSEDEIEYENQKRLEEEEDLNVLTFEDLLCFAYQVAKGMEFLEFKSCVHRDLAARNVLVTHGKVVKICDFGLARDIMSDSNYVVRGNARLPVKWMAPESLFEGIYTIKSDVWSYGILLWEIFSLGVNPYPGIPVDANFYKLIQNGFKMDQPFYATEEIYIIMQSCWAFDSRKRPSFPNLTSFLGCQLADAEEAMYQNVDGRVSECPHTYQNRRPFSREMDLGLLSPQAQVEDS

[3] = biological target: Receptor-type tyrosine-protein kinase FLT3 (Homo sapiens, UniProt P36888, D835H); test: Binding affinity to human partial length FLT3 D835H mutant (V592 to Y969 residues) expressed in Escherichia coli after 1 hr by qPCR analysis
[4] = biological target: Receptor-type tyrosine-protein kinase FLT3 (Homo sapiens, UniProt P36888, D835Y); test: Binding affinity to human partial length FLT3 D835Y mutant (Q580 to Y969 residues) expressed in Escherichia coli after 1 hr by qPCR analysis
Homo sapiens [5] = organism: Homo sapiens; test: Inhibition of MAPK in human MOLM13 cells assessed as ratio of phosphorylated ERK to beta-actin level at 30 nM after 2 hrs by Western blot analysis relative to control; type: cell-based
MV4-11 [6] = test: Antitumour activity against human MV4-11 cells xenografted in po dosed NOD/SCID mouse assessed as tumour growth inhibition administered daily for 14 days; type: functional, organism-based
MV4-11 [7] = test: Antitumour activity against human MV4-11 cells xenografted in NOD/SCID mouse assessed as tumour growth inhibition at 1 mg/kg, po qd for 14 days measured every two days during compound dosing by caliper method relative to control; type: functional; conditions: MV4-11, po, read-out: TGI
MOLM-13 [8] = test: Cell cycle arrest in human MOLM13 cells assessed as accumulation at G2/M phase at 3 nM after 24 hrs by propidium iodide staining-based flow cytometric analysis (reference value: 13.52%); type: functional
MOLM-13 [9] = test: Cell cycle arrest in human MOLM13 cells assessed as accumulation at S phase at 3 nM after 24 hrs by propidium iodide staining-based flow cytometric analysis (reference value: 41.95%); type: functional
MV4-11 [10] = test: Cell cycle arrest in human MV4-11 cells assessed as accumulation at S phase at 1 nM after 24 hrs by propidium iodide staining-based flow cytometric analysis (reference value: 30.12%); type: functional
MOLM-13 [11] = test: Induction of apoptosis in human MOLM13 cells assessed as viable cells at 1 nM after 48 hrs by Annexin V/propidium iodide staining based flow cytometry (reference value: 88.2%); type: functional; conditions: MOLM-13, 48 h, read-out: Activity
Homo sapiens [12] = organism: Homo sapiens; test: Selectivity ratio of IC50 for recombinant human c-Kit (544 to end residues) to IC50 for recombinant human FLT3 (564 to end residues)
MOLM-13 [13] = test: Induction of apoptosis in human MOLM13 cells assessed as viable cells at 10 nM after 48 hrs by Annexin V/propidium iodide staining based flow cytometry (reference value: 88.2%); type: functional; conditions: MOLM-13, 48 h, read-out: Activity
MOLM-13 [14] = test: Induction of apoptosis in human MOLM13 cells assessed as late apoptotic cells at 10 nM after 48 hrs by Annexin V/propidium iodide staining based flow cytometry (reference value: 5.52%); type: functional
MOLM-13 [15] = test: Induction of apoptosis in human MOLM13 cells assessed as viable cells at 100 nM after 48 hrs by Annexin V/propidium iodide staining based flow cytometry (reference value: 88.2%); type: functional; conditions: MOLM-13, 48 h, read-out: Activity
MOLM-13 [16] = test: Induction of apoptosis in human MOLM13 cells assessed as late apoptotic cells at 100 nM after 48 hrs by Annexin V/propidium iodide staining based flow cytometry (reference value: 5.52%); type: functional
MV4-11 [17] = test: Induction of apoptosis in human MV4-11 cells assessed as late apoptotic cells at 100 nM after 48 hrs by Annexin V/propidium iodide staining based flow cytometry (reference value: 2.83%); type: functional
MV4-11 [18] = test: Induction of apoptosis in human MV4-11 cells assessed as early apoptotic cells at 1 uM after 48 hrs by Annexin V/propidium iodide staining based flow cytometry (reference value: 2.76%); type: functional
MV4-11 [19] = test: Induction of apoptosis in human MV4-11 cells assessed as late apoptotic cells at 1 uM after 48 hrs by Annexin V/propidium iodide staining based flow cytometry (reference value: 2.83%); type: functional
MV4-11 [20] = test: Induction of apoptosis in human MV4-11 cells assessed as early apoptotic cells at 10 uM after 48 hrs by Annexin V/propidium iodide staining based flow cytometry (reference value: 2.76%); type: functional
[21] = Toxicity in NOD/SCID mouse xenografted with human MV4-11 cells at 1 to 3 mg/kg, po qd for 14 days; type: organism-based; conditions: in vivo, 336 h
MV4-11 [22] = test: cells; conditions: Homo sapiens, MV4-11, 72 h
Description: Antiproliferative activity against human MV4-11 cells harboring FLT3-ITD mutant measured after 72 hrs by MTT assay

BaF3 = test: cells; conditions: Mus musculus, BaF3, 72 h
Description: Antiproliferative activity against mouse BAF3 cells harboring FLT3-ITD mutant measured after 72 hrs by MTT assay

MOLM-13 [23] = test: animal or person; conditions: Mus musculus, MOLM-13, po, read-out: TGI
Description: Antitumour activity against human MOLM13 cells xenografted in NOD/SCID mouse assessed as tumour growth inibition at 3 mg/kg, po qd for 10 days measured every two days during compound dosing by caliper method relative to control

- Tmax [1]: 45 min
- Kd [2]: 4.37 nM
- Kd [3]: 5.14 nM
- Kd [4]: 7.78 nM
- Ratio IC50 (Homo sapiens [12]): > 40
- IC50 (MV4-11 [22]): 0.089 nM
- IC50 (BaF3): 0.92 nM
Compound: C=CCn1cc(-c2ccc(NC(=O)Nc3cc(C(C)(C)C)on3)cc2)c2c(N)ncnc21
- fold change (FC) (Homo sapiens [5]): 0.1
- TGI (MV4-11 [6]): Dose-dependent effect
- inhibition in vivo at 1 mg/kg (MV4-11 [7]): 70.5%
- Activity (MOLM-13 [8]): 4.55%
- Activity (MOLM-13 [9]): 11.83%
- Activity (MV4-11 [10]): 32.51%
- viability at 0.001 µM (MOLM-13 [11]): 85%
- viability at 0.01 µM (MOLM-13 [13]): 66.1%
- Activity (MOLM-13 [14]): 18.3%
- viability at 0.1 µM (MOLM-13 [15]): 62.8%
- Activity (MOLM-13 [16]): 21.5%
- Activity (MV4-11 [17]): 12.7%
- Activity (MV4-11 [18]): 19.9%
- Activity (MV4-11 [19]): 24.8%
- Activity (MV4-11 [20]): 13.4%
- Activity [21]: Non-Toxic
- inhibition in vivo at 3 mg/kg (MOLM-13 [23]): 94.5%
